Data: US20020090380A1, “Novel formulation comprising thymol useful in the treatment of drug resistant bacterial infections” (priority 2000, published 2002)
Read-outs that look alike come from different tables or passages of the source.

What was measured:
Assay type in all cases: cell-based, Escherichia coli
Nal^R mutants of E. coli = conditions: 5 μg/ml
E. coli CA 8000 (WT) = conditions: CA 8000 (WT)
[1] = tested on: lomefloxacin resistant cells of E. coli

## C[C@@H]1CN(c2c(F)c(N)c3c(=O)c(C(=O)O)cn(C4CC4)c3c2F)C[C@H](C)N1 [Sparfloxacin]
Nal^R mutants of E. coli; CAN 101
  Growth in poison agar medium: +
Nal^R mutants of E. coli; CAN 102
  Growth in poison agar medium: +
Nal^R mutants of E. coli; CAN 103
  Growth in poison agar medium: +
Nal^R mutants of E. coli; CAN 104
  Growth in poison agar medium: +
Nal^R mutants of E. coli; CAN 105
  Growth in poison agar medium: +
Nal^R mutants of E. coli; CAN 106
  Growth in poison agar medium: +
Nal^R mutants of E. coli; CAN 107
  Growth in poison agar medium: +
Nal^R mutants of E. coli; CAN 108
  Growth in poison agar medium: +
Nal^R mutants of E. coli; CAN 109
  Growth in poison agar medium: +
Nal^R mutants of E. coli; CAN 110
  Growth in poison agar medium: +
Nal^R mutants of E. coli; CAN 111
  Growth in poison agar medium: +
Nal^R mutants of E. coli; CAN 112
  Growth in poison agar medium: +
Nal^R mutants of E. coli; CAN 113
  Growth in poison agar medium: +
Nal^R mutants of E. coli; CAN 114
  Growth in poison agar medium: +
Nal^R mutants of E. coli; CAN 115
  Growth in poison agar medium: +
Nal^R mutants of E. coli; CAN 116
  Growth in poison agar medium: +
Nal^R mutants of E. coli; CAN 117
  Growth in poison agar medium: +
Nal^R mutants of E. coli; CAN 118
  Growth in poison agar medium: +
Nal^R mutants of E. coli; CAN 119
  Growth in poison agar medium: +
Nal^R mutants of E. coli; CAN 120
  Growth in poison agar medium: +
Nal^R mutants of E. coli; CAN 121
  Growth in poison agar medium: +
Nal^R mutants of E. coli; CAN 122
  Growth in poison agar medium: +
Nal^R mutants of E. coli; CAN 123
  Growth in poison agar medium: +
Nal^R mutants of E. coli; CAN 124
  Growth in poison agar medium: +
Nal^R mutants of E. coli; CAN 125
  Growth in poison agar medium: +
Nal^R mutants of E. coli; CAN 126
  Growth in poison agar medium: +
E. coli CA 8000 (WT); 5 μg/ml, Table 2
  Growth in poison agar medium: −
E. coli CA 8000 (WT); 20 μg/ml, Table 4
  Growth in poison agar medium: −
[1]; CAL 101, 20 μg/ml
  Growth in poison agar medium: +
[1]; CAL 102, 20 μg/ml
  Growth in poison agar medium: +
[1]; CAL 103, 20 μg/ml
  Growth in poison agar medium: +
[1]; CAL 104, 20 μg/ml
  Growth in poison agar medium: +
[1]; CAL 105, 20 μg/ml
  Growth in poison agar medium: +
[1]; CAL 106, 20 μg/ml
  Growth in poison agar medium: +
[1]; CAL 107, 20 μg/ml
  Growth in poison agar medium: +
[1]; CAL 108, 20 μg/ml
  Growth in poison agar medium: +

## CCn1cc(C(=O)O)c(=O)c2cc(F)c(N3CCNCC3)cc21 [Aorfloxacin]
E. coli CA 8000 (WT); 20 μg/ml, Table 4
  Growth in poison agar medium: −
[1]; CAL 101, 20 μg/ml
  Growth in poison agar medium: +
[1]; CAL 102, 20 μg/ml
  Growth in poison agar medium: +
[1]; CAL 103, 20 μg/ml
  Growth in poison agar medium: +
[1]; CAL 104, 20 μg/ml
  Growth in poison agar medium: +
[1]; CAL 105, 20 μg/ml
  Growth in poison agar medium: +
[1]; CAL 106, 20 μg/ml
  Growth in poison agar medium: +
[1]; CAL 107, 20 μg/ml
  Growth in poison agar medium: +
[1]; CAL 108, 20 μg/ml
  Growth in poison agar medium: +

## CCn1cc(C(=O)O)c(=O)c2cc3c(cc21)OCO3 [Oxolinic Acid, oxolinic acid]
Nal^R mutants of E. coli; CAN 101
  Growth in poison agar medium: −
Nal^R mutants of E. coli; CAN 102
  Growth in poison agar medium: −
Nal^R mutants of E. coli; CAN 103
  Growth in poison agar medium: −
Nal^R mutants of E. coli; CAN 104
  Growth in poison agar medium: −
Nal^R mutants of E. coli; CAN 105
  Growth in poison agar medium: −
Nal^R mutants of E. coli; CAN 106
  Growth in poison agar medium: +
Nal^R mutants of E. coli; CAN 107
  Growth in poison agar medium: +
Nal^R mutants of E. coli; CAN 108
  Growth in poison agar medium: +
Nal^R mutants of E. coli; CAN 109
  Growth in poison agar medium: +
Nal^R mutants of E. coli; CAN 110
  Growth in poison agar medium: +
Nal^R mutants of E. coli; CAN 111
  Growth in poison agar medium: +
Nal^R mutants of E. coli; CAN 112
  Growth in poison agar medium: −
Nal^R mutants of E. coli; CAN 113
  Growth in poison agar medium: +
Nal^R mutants of E. coli; CAN 114
  Growth in poison agar medium: +
Nal^R mutants of E. coli; CAN 115
  Growth in poison agar medium: +
Nal^R mutants of E. coli; CAN 116
  Growth in poison agar medium: +
Nal^R mutants of E. coli; CAN 117
  Growth in poison agar medium: +
Nal^R mutants of E. coli; CAN 118
  Growth in poison agar medium: +
Nal^R mutants of E. coli; CAN 119
  Growth in poison agar medium: −
Nal^R mutants of E. coli; CAN 120
  Growth in poison agar medium: −
Nal^R mutants of E. coli; CAN 121
  Growth in poison agar medium: +
Nal^R mutants of E. coli; CAN 122
  Growth in poison agar medium: +
Nal^R mutants of E. coli; CAN 123
  Growth in poison agar medium: +
Nal^R mutants of E. coli; CAN 124
  Growth in poison agar medium: +
Nal^R mutants of E. coli; CAN 125
  Growth in poison agar medium: +
Nal^R mutants of E. coli; CAN 126
  Growth in poison agar medium: +
E. coli CA 8000 (WT); 5 μg/ml, Table 2
  Growth in poison agar medium: −
E. coli CA 8000 (WT); 5 μg/ml, Table 4
  Growth in poison agar medium: −
[1]; CAL 101, 5 μg/ml
  Growth in poison agar medium: +
[1]; CAL 102, 5 μg/ml
  Growth in poison agar medium: +
[1]; CAL 103, 5 μg/ml
  Growth in poison agar medium: +
[1]; CAL 104, 5 μg/ml
  Growth in poison agar medium: +
[1]; CAL 105, 5 μg/ml
  Growth in poison agar medium: +
[1]; CAL 106, 5 μg/ml
  Growth in poison agar medium: +
[1]; CAL 107, 5 μg/ml
  Growth in poison agar medium: +
[1]; CAL 108, 5 μg/ml
  Growth in poison agar medium: +
